Laboratory results: PubChem BioAssay (NCI)
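Tested at 5 concentrations; 48 h exposure; 96-well plates; endpoints linearly interpolated, else capped at highest concentration. At the GI50, growth is halved. TGI denotes the concentration required for complete inhibition of growth.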

How the values were obtained:
Assay in all cases: NCI anticancer screen, dose series, 48 h
[1] = test system: SF-268 CNS
[2] = test system: KM12 colon
[3] = test system: UO-31 renal
[4] = test system: RPMI-8226 leukemia
[5] = test system: CAKI-1 renal
[6] = test system: T-47D breast
[7] = test system: HCC-2998 colon
[8] = test system: MDA-MB-231 breast
[9] = test system: BT-549 breast
[10] = test system: HS 578T breast
[11] = test system: SF-539 CNS
[12] = test system: U251 CNS
[13] = test system: DU-145 prostate
[14] = test system: NCI-H226 lung
[15] = test system: SK-OV-3 ovarian
[16] = test system: SNB-19 CNS
[17] = test system: HOP-62 NSCLC
[18] = test system: HOP-92 NSCLC
[19] = test system: CCRF-CEM leukemia
[20] = test system: NCI-H522 lung
[21] = test system: ACHN renal
[22] = test system: A498 renal
[23] = test system: SK-MEL-28 melanoma
[24] = test system: SK-MEL-5 melanoma
[25] = test system: NCI-H460 lung
[26] = test system: IGROV1 ovarian
[27] = test system: NCI/ADR-RES ovarian
[28] = test system: HCT-116 colon
[29] = test system: EKVX NSCLC
[30] = test system: MALME-3M melanoma
[31] = test system: SF-295 CNS
[32] = test system: SN12C renal
[33] = test system: LOX IMVI melanoma
[34] = test system: A549 NSCLC
[35] = test system: OVCAR-8 ovarian
[36] = test system: TK-10 renal
[37] = test system: OVCAR-4 ovarian
[38] = test system: SK-MEL-2 melanoma
[39] = test system: UACC-257 melanoma
[40] = test system: HCT-15 colon
[41] = test system: M14 melanoma
[42] = test system: UACC-62 melanoma
[43] = test system: MCF7 breast
[44] = test system: HT29 colon
[45] = test system: NCI-H23 lung
[46] = test system: RXF 393 renal
[47] = test system: SW-620 colon
[48] = test system: OVCAR-5 ovarian
[49] = test system: 786-0 renal
[50] = test system: OVCAR-3 ovarian
[51] = test system: SR leukemia
[52] = test system: PC-3 prostate
[53] = test system: MDA-MB-435
[54] = test system: MOLT-4 leukemia
[55] = test system: COLO 205 colon
[56] = test system: K-562 leukemia

`C=C1C(O)C2CC(C)(CO)C(=O)C2=C(CC(C)C)C12CC2` (configuration not stated) showed a GI50 [1] of over 100 µM, a TGI [1] of over 100 µM and a GI50 [2] of 50.6 µM. The TGI [2] was over 100 µM, the GI50 [3] was over 100 µM and the TGI [3] was over 100 µM. The GI50 [4] was 29.1 µM, the TGI [4] was over 100 µM and the GI50 [5] was 69.6 µM. For the same compound, the TGI [5] was over 100 µM, the GI50 [6] was over 100 µM and the TGI [6] was over 100 µM. It also gave a GI50 [7] of over 100 µM, a TGI [7] of over 100 µM and a GI50 [8] of over 100 µM. For the same compound, the TGI [8] was over 100 µM, the GI50 [9] was over 100 µM and the TGI [9] was over 100 µM. It also gave a GI50 [10] of over 100 µM, a TGI [10] of over 100 µM and a GI50 [11] of 51.6 µM. It also gave a TGI [11] of over 100 µM, a GI50 [12] of 77 µM and a TGI [12] of over 100 µM. For the same compound, the GI50 [13] was 86.4 µM, the TGI [13] was over 100 µM and the GI50 [14] was over 100 µM. It also gave a TGI [14] of over 100 µM, a GI50 [15] of over 100 µM and a TGI [15] of over 100 µM. The GI50 [16] was over 100 µM, the TGI [16] was over 100 µM and the GI50 [17] was over 100 µM. For the same compound, the TGI [17] was over 100 µM, the GI50 [18] was 94.6 µM and the TGI [18] was over 100 µM. The GI50 [19] was 58 µM, the TGI [19] was over 100 µM and the GI50 [20] was 68.4 µM. The TGI [20] was over 100 µM, the GI50 [21] was 93.8 µM and the TGI [21] was over 100 µM. The GI50 [22] was over 100 µM, the TGI [22] was over 100 µM and the GI50 [23] was over 100 µM. It also gave a TGI [23] of over 100 µM, a GI50 [24] of 82.8 µM and a TGI [24] of over 100 µM. For the same compound, the GI50 [25] was 67 µM, the TGI [25] was over 100 µM and the GI50 [26] was over 100 µM. The TGI [26] was over 100 µM, the GI50 [27] was over 100 µM and the TGI [27] was over 100 µM. The GI50 [28] was 38.7 µM, the TGI [28] was over 100 µM and the GI50 [29] was 69.5 µM. The TGI [29] was over 100 µM, the GI50 [30] was 28.3 µM and the TGI [30] was over 100 µM. For the same compound, the GI50 [31] was 57.1 µM, the TGI [31] was over 100 µM and the GI50 [32] was over 100 µM. The TGI [32] was over 100 µM, the GI50 [33] was 57.9 µM and the TGI [33] was over 100 µM. The GI50 [34] was 59.8 µM, the TGI [34] was over 100 µM and the GI50 [35] was 77.8 µM. For the same compound, the TGI [35] was over 100 µM, the GI50 [36] was 52.9 µM and the TGI [36] was over 100 µM. For the same compound, the GI50 [37] was over 100 µM, the TGI [37] was over 100 µM and the GI50 [38] was over 100 µM. The TGI [38] was over 100 µM, the GI50 [39] was 52.1 µM and the TGI [39] was over 100 µM. The GI50 [40] was 82.3 µM, the TGI [40] was over 100 µM and the GI50 [41] was 92.7 µM. The TGI [41] was over 100 µM, the GI50 [42] was 78.6 µM and the TGI [42] was over 100 µM. For the same compound, the GI50 [43] was 63.9 µM, the TGI [43] was over 100 µM and the GI50 [44] was over 100 µM. The TGI [44] was over 100 µM, the GI50 [45] was over 100 µM and the TGI [45] was over 100 µM. The GI50 [46] was over 100 µM, the TGI [46] was over 100 µM and the GI50 [47] was 62.3 µM. The TGI [47] was over 100 µM, the GI50 [48] was over 100 µM and the TGI [48] was over 100 µM. It also gave a GI50 [49] of over 100 µM, a TGI [49] of over 100 µM and a GI50 [50] of 36.5 µM. For the same compound, the TGI [50] was 92.4 µM, the GI50 [51] was 40.8 µM and the TGI [51] was over 100 µM. It also gave a GI50 [52] of 56 µM, a TGI [52] of over 100 µM and a GI50 [53] of 75 µM. For the same compound, the TGI [53] was over 100 µM, the GI50 [54] was 81.8 µM and the TGI [54] was over 100 µM. It also gave a GI50 [55] of over 100 µM, a TGI [55] of over 100 µM and a GI50 [56] of 31.9 µM. The TGI [56] was over 100 µM.
